Measurements: patent US11413278B2, “Compounds and methods for promoting stress resistance” (priority 2015, dated 2022)
Where two headings read alike, the source gives them in different places.

Experiments:
human PARP1 = target: T1, human PARP1 (Homo sapiens, UniProt P09874); assay: PARP inhibitor assay (HT Fluorescent Homogeneous PARP Inhibition Assay Kit); type: biochemical; conditions: score
T1 construct: purchased Trevigen
In short: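 Compounds (10 μM final) incubated 30 min, room temperature, dark, with human PARP1, nicotinamide adenine dinucleotide and activated DNA. Fluorescent signal generated by 1 hr cycling with diaphorase and resazurin, then reaction stopped.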

NRF2 [1] = assay: qPCR analysis of NRF2-regulated genes; type: cell-based, human; conditions: for fold induction at 10 µM: Homo sapiens; for Potential NRF2 Activation (>=2 target genes induced, by >=1.5-fold): Assay 13(p)
In short: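 Expression of HMOX1, NQO1, GCLC and GSTM1 measured by qPCR relative to B2M, PPIA and GAPDH. Cells were WI-38 fibroblasts exposed 24 hrs to 10 μM compound, with RNA and cDNA prepared via Cells-to-Ct. Where stated, cells were first transfected 36 hrs with FOXO3 or NRF2 siRNA at 10 nM.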

NRF2 [2] = assay: in vitro; type: cell-based, human
LC3A/B puncta = assay: Autophagy induction analysis (LC3A/B puncta immuno-staining); type: cell-based, human; conditions: for Exp. 2, normalized change of nuclei numbers (Less cells): 20X objective, lysosomal LAMP co-staining
Description: Immuno-staining of LC3A/B was performed, following a standard protocol. Briefly, WI-38 cells were treated with small molecules for 24 hrs, and then processed and incubated with primary antibody (Cell Signaling, rabbit anti-LC3A/B, 1:100) overnight at 4° C. Next day, samples were processed and incubated with fluorophore-conjugated secondary antibody and further incubated with DAPI dye. Images were collected on the INCell Analyzer 2000 (Experiment 1: 10× objective; Experiment 2: 20× objective) and analyzed with the Developer Toolbox. For Experiment 2, lysosomal-associated membrane protein 2 (LAMP2) was also counter-stained to identify the LC3A/B puncta that colocalize with lysosome and the data were analyzed by the MetaXpress software (Molecular Devices, version 5.1). The intensity of total (Exp. 1) or LAMP2-colocalized LC3A/B puncta (Exp. 2) was normalized the total numbers nuclei in the fields.
These assays were performed, following the same procedures to analyze DNA-damage markers. WI-38 cells were incubated with small molecules for 24 hrs, and then processed and incubated with primary antibody (rabbit anti-LC3A/B, 1:100) overnight at 4 C. The next day, samples were processed and incubated with fluorophore-conjugated secondary antibody and further incubated with DAPI dye. Images were collected on an INCell Analyzer 2000 and analyzed with the Developer software. Total LC3A/B puncta intensity was normalized the total numbers of DAPI-positive nuclei.

[3] = 24 h, Assay 12(o), at 10 uM, qPCR, read-out: Induction of NRF2-regulated genes: GCLC normalized fold-change
[4] = 24 h, Assay 12(o), at 10 uM, qPCR, read-out: Induction of NRF2-regulated genes: HMOX1 normalized fold-change
[5] = rounded fold change, WI-38 cells, 10 μM, 24 hrs (RP11 for Gr-1D, RP29 for Gr-4D), read-out: Summary of effects on NRF2-regulated genes: HMOX1
[6] = rounded fold change, WI-38 cells, 10 μM, 24 hrs, read-out: Summary of effects on NRF2-regulated genes: GCLC
[7] = 10 μM, 24 hrs, WI-38 cells, qPCR, normalized to B2M, n = 4, read-out: GCLC expression, normalized fold change (NRF2-regulated gene)
[8] = 10 μM, 24 hrs, WI-38 cells, qPCR, normalized to B2M, n = 4, read-out: HMOX1 expression, normalized fold change (NRF2-regulated gene)
[9] = WI-38 cells, 10 μM, 24 hrs, n=4, qPCR normalized by B2M, read-out: GCLC Normalized fold change
[10] = WI-38 cells, 10 μM, 24 hrs, n=4, qPCR normalized by B2M, read-out: GSTM1 Normalized fold change
[11] = WI-38 cells, 10 μM, 24 hrs, n=4, qPCR normalized by B2M, read-out: HMOX1 Normalized fold change
[12] = WI-38 cells, 10 μM, 24 hrs, n=4, qPCR normalized by B2M, read-out: NQO1 Normalized fold change
[13] = Exp. 1, 10 μM, 10X objective, WI-38 cells
[14] = 24 h, Assay 12(o), at 10 uM, qPCR, read-out: Induction of NRF2-regulated genes: NQO1 normalized fold-change
[15] = rounded fold change, WI-38 cells, 10 μM, 24 hrs (RP29 for Gr-4D), read-out: Summary of effects on NRF2-regulated genes: NQO1
[16] = 10 μM, 24 hrs, WI-38 cells, qPCR, normalized to B2M, n = 4, read-out: NQO1 expression, normalized fold change (NRF2-regulated gene)
[17] = 24 h, Assay 12(o), at 10 uM, qPCR, read-out: Induction of NRF2-regulated genes: GSTM1 normalized fold-change
[18] = rounded fold change, WI-38 cells, 10 μM, 24 hrs (RP29 for Gr-4D), read-out: Summary of effects on NRF2-regulated genes: GSTM1
[19] = 10 μM, 24 hrs, WI-38, read-out: Expression of at least two NRF2 target genes
[20] = 10 μM, 24 hrs, WI-38 cells, qPCR, normalized to B2M, n = 4, read-out: GSTM1 expression, normalized fold change (NRF2-regulated gene)

T1 sequence (P09874 whole entry): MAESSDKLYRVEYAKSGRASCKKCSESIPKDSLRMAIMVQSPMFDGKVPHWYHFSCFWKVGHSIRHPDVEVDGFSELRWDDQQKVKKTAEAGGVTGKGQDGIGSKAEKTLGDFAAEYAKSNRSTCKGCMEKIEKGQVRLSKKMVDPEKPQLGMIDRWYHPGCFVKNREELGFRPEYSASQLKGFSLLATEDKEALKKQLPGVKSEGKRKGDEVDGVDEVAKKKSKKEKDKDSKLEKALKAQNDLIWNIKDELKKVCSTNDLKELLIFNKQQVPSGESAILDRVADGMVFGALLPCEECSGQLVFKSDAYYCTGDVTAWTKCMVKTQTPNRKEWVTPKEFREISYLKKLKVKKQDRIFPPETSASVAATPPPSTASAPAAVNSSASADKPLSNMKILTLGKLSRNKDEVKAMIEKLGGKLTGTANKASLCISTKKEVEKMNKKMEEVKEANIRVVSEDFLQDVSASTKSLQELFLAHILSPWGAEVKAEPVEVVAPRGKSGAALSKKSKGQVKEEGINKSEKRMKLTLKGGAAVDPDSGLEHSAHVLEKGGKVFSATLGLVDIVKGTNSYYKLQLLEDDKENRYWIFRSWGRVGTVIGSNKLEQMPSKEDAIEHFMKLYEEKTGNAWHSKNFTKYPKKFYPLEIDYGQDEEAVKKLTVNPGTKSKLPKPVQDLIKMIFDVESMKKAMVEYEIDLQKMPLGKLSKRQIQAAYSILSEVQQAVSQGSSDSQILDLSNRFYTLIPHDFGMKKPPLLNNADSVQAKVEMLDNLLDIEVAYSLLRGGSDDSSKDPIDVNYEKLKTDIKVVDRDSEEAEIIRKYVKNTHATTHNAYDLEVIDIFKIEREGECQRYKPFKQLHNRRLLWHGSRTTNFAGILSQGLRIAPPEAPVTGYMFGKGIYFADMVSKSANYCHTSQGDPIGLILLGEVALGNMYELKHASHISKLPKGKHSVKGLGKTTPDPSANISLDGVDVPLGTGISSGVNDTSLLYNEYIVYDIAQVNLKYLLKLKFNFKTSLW

SMILES | L = PARP inhibition (human PARP1) | F = Potential NRF2 Activation (NRF2 [1]; 2-point score) | fold induction at 10 µM (NRF2 [1]; [4]) | fold induction at 10 µM (NRF2 [1]; [5]) | fold induction at 10 µM (NRF2 [1]; [8]) | fold induction at 10 µM (NRF2 [1]; [9]) | fold induction at 10 µM (NRF2 [1]; [10]) | fold induction at 10 µM (NRF2 [1]; [11]) | fold induction at 10 µM (NRF2 [1]; [12]) | F = Potential NRF2 Activation (NRF2 [1]; summary score) | J = NRF2-dependency for H2O2-resistance (NRF2 [2]; score) | J = NRF2-dependency for H2O2-resistance (NRF2 [2]; summary score) | H = Potential Autophagy Induction (LC3A/B puncta; score) | H = Potential Autophagy Induction (LC3A/B puncta; summary score) | fold induction at 10 µM (NRF2 [1]; [14]) | fold induction at 10 µM (NRF2 [1]; [15]) | fold induction at 10 µM (NRF2 [1]; [16]) | Potential NRF2 Activation (>=2 target genes induced, by >=1.5-fold) (NRF2 [1]) | fold induction at 10 µM (NRF2 [1]; [19]) | further results
O=C(Nc1ccc(Cl)c(Cl)c1)c1ccc([N+](=O)[O-])o1 [Gr-1G] | 0 | 0 | 0.5 | 0.5 | 0.5 | 1.57 | 0.948 | 0.503 | 1.26 | 0 | 0 | 0 | 1 | 1 |  |  |  |  |  | fold induction at 10 µM (NRF2 [1]; [3]): 1.57; fold induction at 10 µM (NRF2 [1]; [6]): 1.57; fold induction at 10 µM (NRF2 [1]; [7]): 1.57; NRF2-dependency for H2O2-resistance, at 10 uM - with H2O2, 1st experiment (NRF2 [2]; 10 uM, experiment 1 (1st), with H2O2): 1st, YES;; NRF2-dependency for H2O2-resistance, 1st experiment (NRF2 [2]; 10 uM, with H2O2, NRF2 knockdown in WI-38 cells, YES = resistance reduced by at least 50%, partial = 25% to 50%): YES;; Assay 15: Potential autophagy induction by LC3A/B puncta assays (LC3A/B puncta; 10 uM & 20 uM, YES/NO): YES; Exp. 1, induction of LC3A/B puncta (Up), total intensity normalized by total number of nuclei in the fields (LC3A/B puncta; [13]): p < 0.001; Up, 2006%,; Exp. 1, normalized change of nuclei numbers (Less cells) (LC3A/B puncta; [13]): Less cells, 41%,; Exp. 2, normalized change of nuclei numbers (Less cells) (LC3A/B puncta; Exp. 2, 10 μM, WI-38 cells): Less cells, 47%,; Exp. 2, normalized change of nuclei numbers (Less cells) (LC3A/B puncta; Exp. 2, 20 μM, WI-38 cells): Less cells, 67%,
O=[N+]([O-])c1ccccc1S(=O)(=O)Nc1cccc2cccnc12 [Gr-3A] | 0 | 0 |  | 1.41 | 1.41 | 1.01 | 1.35 | 1.41 | 1.37 | 0 | 0 | 0 | 0 | 0 | 1.3 | 1.37 | 1.37 |  |  | 
Cc1ccc(S(=O)(=O)Nc2cccc3cccnc23)cc1 [Gr-3B] | 0 | 0 |  |  |  | 1.1 | 1.1 | 1.04 | 1.07 | 0 | 0 | 0 | 0 | 0 |  |  |  |  |  | 
Nc1ccccc1S(=O)(=O)Nc1cccc2cccnc12 [Gr-3C] | 0 | 0 | 0.86 |  |  | 0.991 | 1.45 | 1.12 | 1.19 | 0 | 0 | 0 | 0 | 0 |  |  |  |  |  | 
COc1ccc(C(=O)/C=C/c2ccc(F)cc2)c(OC)c1 [Gr-4A] | 0 | 2 | 5.24 | 5.24 | 5.24 | 1.18 | 1.24 | 5.24 | 2.73 | 2 | 0 | 0 | 0 | 0 | 2.73 | 2.73 | 2.73 | YES | > 1.5 | fold induction at 10 µM (NRF2 [1]; [17]): 1.24; fold induction at 10 µM (NRF2 [1]; [18]): 1.24; fold induction at 10 µM (NRF2 [1]; [20]): 1.24
COc1ccc(C(=O)/C=C/c2ccccc2Br)c(OC)c1 [Gr-4B] | 0 | 2 | 4.51 | 4.51 | 4.51 | 1.15 | 1.15 | 4.51 | 2.36 | 2 | 0 | 0 | 0 | 0 | 2.36 | 2.36 | 2.36 | YES | > 1.5 | 
COc1ccc(C(=O)/C=C/c2cccc(Cl)c2)c(OC)c1 [Gr-4C] | 0 | 2 | 89.5 | 89.5 | 89.5 | 2.51 | 1.63 | 89.5 | 5 | 2 | 0 | 0 | 0 | 0 | 5 | 5 | 5 | YES | > 1.5 | fold induction at 10 µM (NRF2 [1]; [3]): 2.51; fold induction at 10 µM (NRF2 [1]; [17]): 1.63; fold induction at 10 µM (NRF2 [1]; [18]): 1.63; fold induction at 10 µM (NRF2 [1]; [6]): 2.51; fold induction at 10 µM (NRF2 [1]; [7]): 2.51; fold induction at 10 µM (NRF2 [1]; [20]): 1.63
